This data set can be described thus: Half life was evaluated. The data set is classed as ADME.

Regarding `O=C([C@@H]1C2CCC(CC2)N1C(=O)[C@@H]1C[C@@H]1c1ccccc1)N1CCCC1`, the half-life is 7 h.

Broadly, the half-life is the time in which the quantity being followed falls by half. The low end stands for rapid decline, the high end for slow decline.

Values taken from ChEMBL document CHEMBL1129340, “New prolyl endopeptidase inhibitors: in vitro and in vivo activities of azabicyclo[2.2.2]octane, azabicyclo[2.2.1]heptane, and perhydroindole derivatives” (J Med Chem, 1996).
